Marks after values point to notes of the source that are not given here.
System: homozygous deletion mutant (HH80)
Test: Growth of CaNik1 deletion mutant HH80 spot plated on agar plates with supplements (osmotic agents, inhibitors, carbon sources)
Assay type: cell-based, Candida albicans
Settings: for Differential sensitivity: growth of mutant strain HH80 versus control strains CAI8 and CAI8U5: agar with modified Lee's medium plus ingredient, 25° C. and 37° C., three independent experiments; for Phenotypic effect in HH80: growth on agar plates: Lee's modified medium or YPD, 2 or 3 days at 25° C. and 37° C.
Experimental: Finally, growth of the CaNik1 deletion mutant HH80 was tested at 25° C. and 37° C. for differential sensitivity to osmotic strength and a variety of inhibitors.

Compound | Differential sensitivity: growth of mutant strain HH80 versus control strains CAI8 and CAI8U5 | also measured
Cn1c(=O)c2c(ncn2C)n(C)c1=O [Caffeine] | no qualitative differences | 
O=S(=O)([O-])c1cc(Nc2nc(Nc3ccccc3)nc(N(CCO)CCO)n2)ccc1/C=C/c1ccc(Nc2nc(Nc3ccccc3)nc(N(CCO)CCO)n2)cc1S(=O)(=O)[O-].[Na+].[Na+] [Calcofluor] | no qualitative differences | Phenotypic effect in HH80: growth on agar plates (Calcofluor 20-40 μg/mL): +++^v
[Cl-].[K+] [KCl] | no qualitative differences | Phenotypic effect in HH80: growth on agar plates (1 M KCl): ++
O=S(=O)([O-])[O-].[Mg+2] [MgSO4] | no qualitative differences | Phenotypic effect in HH80: growth on agar plates (0.5 m MgSO4): ++
[Cl-].[Na+] [NaCl] | no qualitative differences | Phenotypic effect in HH80: growth on agar plates (1 M NaCl): ++; Phenotypic effect in HH80: growth on agar plates (1.5 M NaCl): +
OC[C@@H](O)[C@@H](O)[C@H](O)[C@@H](O)CO [Sorbitol] | no qualitative differences | Phenotypic effect in HH80: growth on agar plates (1.2 M Sorbitol): ++++
OC[C@@H](O)[C@H](O)[C@@H](O)CO [Xylitol] |  | Phenotypic effect in HH80: growth on agar plates (1 M Xylitol): ++++
polymyxin B | no qualitative differences | 
